Measurements from publication PMC7118841 (Biomedicine & Pharmacotherapy, 2006).
Where two headings read alike, the source gives them in different places.

Key:
FluV [1] = details: given either orally or intraperitoneally; cited from earlier work
FIPV = format: cell-based, feline infectious peritonitis virus; details: read-out: EC50, FIPV
TGEV = format: cell-based, transmissible gastroenteritis virus of swine; details: read-out: EC50, TGEV
HIV-1 = details: read-out: EC50, HIV-1; MTT method; cited from earlier work
DFV = details: read-out: EC50, DFV; MTT method; cited from earlier work
SARS-V = format: cell-based, SARS coronavirus; details: read-out: EC50, SARS-V
RSV [2] = details: read-out: EC50, RSV; MTT method; cited from earlier work
PfluV 2 = details: cited from earlier work; for EC50: read-out: EC50, PfluV 2, MTT method
CDV = details: cited from earlier work; for EC50: read-out: EC50, CDV, plaque reduction method
FluV A [3] = details: read-out: EC50, FluV A; MTT method; cited from earlier work
HIV = details: read-out: EC50, anti-HIV, MAGI test; HeLa CD4/LTR-β-Gal cells; cited from earlier work
gp-120 = details: polyclonal mouse antibody; cited from earlier work
[4] = system: syncytium formation between MOLT-4 cells (uninfected cells) and MOLT-4/IIIb cells (infected cells); details: MOLT-4 and MOLT-4/IIIb cells; cited from earlier work
CD4 = details: mouse antibody; cited from earlier work
CXCR4 = details: monoclonal mouse antibody; cited from earlier work
FluV A [5] = details: read-out: EC50 against FluV A; cited from earlier work
[6] = system: FluV A binding to MDCK cells; details: 8–200 μM of compound during 1.5 hour incubation at 37 °C, moi 1; cited from earlier work
RSV-B (SM-61-48) = details: read-out: EC50, RSV-B (SM-61-48); MTT method; data from one experiment; cited from earlier work
HMV-2 = details: read-out: IC50, cytotoxicity HMV-2; MTT method; cited from earlier work
RSV-A [7] = details: read-out: EC50 against RSV-A; compound present 1.5–3 hours; cited from earlier work
Vero = details: read-out: IC50, cytotoxicity Vero; MTT method; cited from earlier work
FluV [8] = details: data not shown; cited from earlier work
RSV [9] = details: HeLa cells; compound after virus adsorption; cited from earlier work
HEp-2 = details: read-out: IC50, cytotoxicity HEp-2; MTT method; cited from earlier work
FluV-A [10] = details: read-out: EC50 against FluV-A; compound present 1.5–3 hours; cited from earlier work
FluV-A [11] = details: cited from earlier work
RSV-A [12] = details: cited from earlier work
MDCK = details: read-out: IC50, cytotoxicity MDCK; MTT method; cited from earlier work
RSV [13] = details: cited from earlier work
[14] = system: ortho- and paramyxoviruses, herpesviruses and retroviruses (HIV-1 and 2); details: cited from earlier work
FluV A (H1N1/PR8) = details: cited from earlier work
MDCK cells = details: cited from earlier work

Compound	EC50 (FIPV) [nM]	EC50 (TGEV) [nM]	EC50 (HIV-1) [nM]	EC50 (DFV) [µM]	EC50 (SARS-V) [nM]	EC50 (RSV [2]) [nM]	EC50 (PfluV 2) [µM]	EC50 (CDV) [µM]	EC50 (FluV A [3]) [µM]	also measured
Ce2H[BW11Mn(H2O)O39] [HPB-2]										therapeutic effect against FluV infection in mice (FluV [1]): potent therapeutic effect
[Et2NH2]7[PTi2W10O40] [PM-518]	> 32900	2100 ± 1100	2000 ± 800	36.8 ± 3	> 50000	26500	53 ± 39	> 50	62 ± 27	antiviral activity against CDV (CDV): did not have antiviral activities
Na7H9{Eu3O(OH)3(H2O)3}2Al2(Nb6O19)5}47H2O [PM-802]	30 ± 10	500 ± 500			> 50000					
(NBu4)4(PriNH3) [PTi2W10O38(O2)2]2H2O [PM-803]	> 21000	340 ± 300								
K10Na[(VO)3(SbW9O33)2]26H2O [PM-1001]	200 ± 100	140 ± 100	140 ± 170		700 ± 400	< 160	1.1 ± 0.9	5.7 ± 0.5	1.75 ± 1.6	EC50 (HIV): 10 nM; inhibition of binding of anti-gp120 antibody to gp-120 (gp-120): inhibited; inhibition of syncytium formation [4]: inhibited syncytium formation; inhibition of binding of anti-CD4 antibody to its target molecule (CD4): did not inhibit; inhibition of binding of anti-CRCX4 antibody to its target molecule (CXCR4): did not inhibit
K9H6(Ge2Ti6W18O77)16H2O [PM-504]	400 ± 300	1400 ± 500			3500 ± 2400					EC50 (FluV A [5]): 1300 nM; inhibition of the binding of FluV to MDCK cells (FACS) [6]: inhibited the binding
[K10Fe4(H2O)2 (PW9O34)2]nH2O [HS-058]										EC50 (RSV-B (SM-61-48)): 3.1 µM; IC50 (HMV-2): 50 µM; EC50 (RSV-A [7]): > 20 µM; IC50 (Vero): 50 µM; concentration inhibiting hemolysis of chicken erythrocytes by FluV (FluV [8]): 58 µM; concentration inhibiting syncytium formation of RSV (RSV [9]): 8.5 µM; IC50 (HEp-2): > 200 µM; EC50 (FluV-A [10]): > 31 µM; Inhibition of RNA and protein synthesis (FluV-A [11]): Probably no; Inhibition of fusion between infected and uninfected cells (FluV-A [11]): Unclear; Inhibition of RNA and protein synthesis (RSV-A [12]): Probably no; Inhibition of fusion of virus envelope and cell membrane (RSV-A [12]): Unclear; IC50 (MDCK): > 200 µM
[Pri2NH2]5[PTiW11O40] [PM-520]	760 ± 500	1400 ± 1300	2000 ± 500	11.7 ± 7.1	4900 ± 1400	740 ± 600	23 ± 2.4	7.4 ± 0.4	45 ± 26	
K12[(VO)3(AsW9O33)2]12H2O [PM-1207]	90 ± 40	1900 ± 1400			900 ± 240					
K11H[(VO)3(SbW9O33)2]27H2O [PM-1002]		600 ± 400	30 ± 10	2 ± 1.4	250 ± 70	750 ± 50	0.75 ± 0.05	2.8 ± 1	4 ± 1.7	EC50 (HIV): 18 nM; inhibition of syncytium formation [4]: inhibited syncytium formation
[NH4]12H(BiW9O33)3Bi6(OH)3(H2O)3V4H10]25H2O [PM-1210]	740 ± 400	1600 ± 1100			760 ± 300					
K12Nb6P2W12O62 [HS-158]										EC50 (RSV-B (SM-61-48)): 2.7 µM; IC50 (HMV-2): 53.7 µM; IC50 (Vero): > 200 µM; IC50 (HEp-2): 82.7 µM; IC50 (MDCK): 164 µM
[(Me3NH)8Si2W18Nb6O77]nH2O [HS-106]										EC50 (RSV-B (SM-61-48)): 4.5 µM; IC50 (HMV-2): 20.7 µM; anti-RSV activity (RSV [13]): most potent and selective anti-RSV activity; antiviral activity [14]: broad spectrum antiviral activity; IC50 (Vero): 148 µM; IC50 (HEp-2): > 200 µM; IC50 (MDCK): > 200 µM
[Na16Fe4(H2O)2(P2W15O56)2]nH2O [HS-054]										EC50 (RSV-B (SM-61-48)): 7.8 µM; IC50 (HMV-2): > 200 µM; IC50 (Vero): 50 µM; IC50 (HEp-2): 88 µM; IC50 (MDCK): > 200 µM
K7[BVW11O40] [PM-47]			30 ± 10	10.5 ± 6.9		29000	67.1	6 ± 0.6	11.5 ± 0.6	
NC(=O)c1ncn([C@@H]2O[C@H](CO)[C@@H](O)[C@H]2O)n1 [Ribavirin, reference compound]				> 100		3900 ± 3100	14 ± 4.8	74 ± 35	5 ± 2.8	EC50 (RSV-B (SM-61-48)): 1.6 µM; IC50 (HMV-2): > 100 µM; appearance of lungs of infected mice (FluV A (H1N1/PR8); 40 mM ribavirin alone, data not shown): swollen and reddened due to congestion; mice survived on the 9th day (FluV A (H1N1/PR8); 80 mM ribavirin aerosol every 12 hours for 4 days): 60%; survival at 14 days after the infection (FluV A (H1N1/PR8); 80 mM ribavirin alone): 30%; Percent viability of cells (MDCK cells; single compound at 100 μM, untreated cells = 100%): 107.2 ± 1.7%; Percent viability of cells (MDCK cells; single compound at 200 μM): 104.8 ± 3.8%; Percent viability of cells (MDCK cells; single compound at 400 μM): 102.8 ± 4.1%; IC50 (Vero): 100 µM; IC50 (HEp-2): 52.7 µM; IC50 (MDCK): > 200 µM
K5[SiVW11O40] [PM-43]			300 ± 120	10.7 ± 6.7		1600	> 100	7.5 ± 1	8.4 ± 6.5	antiviral activity against PfluV 2 (PfluV 2): did not have antiviral activities
K12[(VO)3(BiW9O33)2]29H2O [PM-1208]	> 3600	2000 ± 1800			2700 ± 600					
K12[(VO)3(PW9O34)2]nH2O [PM-1213]	> 10500	1700 ± 1000			470 ± 140					
